Experimental data: patent publication US5795859A (priority 1991, dated 1998)
Ends that are not written are not given here.

Columns and labels:
[1] = tested on: D-galactosamine sensitized mice; experiment: TNF toxicity in D-galactosamine sensitized mice; format: in vivo; conditions: 16 mg D-galactosamine and 2 μg human recombinant TNF i.p., peptide s.c.; survival up to 48 hours
Procedure: The mice were then injected subcutaneously with either test peptide, phosphate buffered saline or neutralizing anti-TN? monoclonal antibody 47.

[2] = tested on: mice; experiment: In vivo TNF toxicity, blood glucose and appearance; conditions: 10 μg of Peptide 2, 200 μg recombinant human TNF
Procedure: Appearance parameters which were evaluated included ruffling of fur, touch sensitivity, presence of eye exudate, light sensitivity and diarrhoea.
Nonfasting blood glucose levels were determined on a Beckman Glucose Analyzer 2 (Beckman Instruments) or on a Exectech blood glucose sensor (Clifford Hallam Pty. Ltd).

[3] = tested on: bovine aortic endothelial cells
Procedure: Endothelial cell procoagulant activity (PCA) induction by TNFα was determined using bovine aortic endothelial cells (BAE) according to the procedure of Bevilacqua et al., 1986 PNAS 83, 4522 with the following modifications: BAE cells were propagated in McCoys 5A medium supplemented with 10% FCS, penicillin, streptomycin and L-gutamine in standard tissue culture flasks and 24-well dishes. TNFα treatment of culture (3 μg/ml) was for 4 hours at 37° C. in the presence of growth medium after which the cells were washed and scrape-harvested before being frozen, thawed and sonicated. Total cellular PCA was determined in a standard one-stage clotting assay using normal donor platelet poor plasma to which 100 μl of CaCl2 and 100 μl of cell lystate was added. Statistical significance was determined by unpaired t-test.

[4] = tested on: human neutrophils
Procedure: In these experiments, neutrophils were prepared from blood of healthy volunteers by the rapid single step method (Kowanko and Ferrante 1987 Immunol 62, 149). To 100 μl of 5×10^6 neutrophils/ml was added 100 μl of either 0, 10, 100 μg of peptide/ml and 800 μl of lucigenin (100 μg). The tubes were immediately placed into a light proof chamber (with a 37° C. water jacket incubator) of a luminometer (model 1250; LKB Instruments, Wallac, Turku, Finaldn). The resultant light output (in millivolts was recorded). The results are recorded as the maximal rate of chemiluminescence production.

[5] = tested on: Meth A ascites tumour-bearing mice; experiment: LPS lethality in Meth A ascites tumour-bearing mice; format: in vivo; conditions: 500 μg E.coli LPS, peptide s.c.; survival up to 64 hours; * heightened activity
Procedure: In LPS experiments polymyxin B, an LPS inhibitor, replaced MAb 47 as a positive control. The number of animals surviving was assessed at intervals up to 64 hours after LPS challenge.

Substance	IN VIVO TNF TOXICITY D-GAL [1]	TNF toxicity as indicated by blood glucose changes [2]	induction of procoagulant activity [3]	activation of the respiratory burst [4]	IN VIVO LPS TOXICITY METH A [5]
ARG THR PRO SER ASP LYS VAL PRO ALA HIS VAL VAL ALA (RTPSDKVPAHVVA; printed: ARG THR PRO SER ASP LYS VAL PRO ALA HIS VAL VAL ALA) [Peptide 2]	+ (each group contains 10 animals: scored positive if 6 or more survive)	abrogated TNF toxicity	–	–	–
VRSSSRTPSDKPVAHVVA [Peptide 1, VAL ARG SER SER SER ARG THR PRO SER ASP LYS PRO VAL ALA HIS VAL VAL ALA]	–	–	failed to either activate the respiratory burst of human neutrophils (Table 5) or to induce procoagulant activity	failed to either activate the respiratory burst	–
Ac-RTPSDKPVAHV-NH2 [Peptide 30, Ac ARG THR PRO SER ASP LYS PRO VAL ALA HIS VAL NH2]	+ (each group contains 10 animals: scored positive if 6 or more survive)	–	–	–	+ (10 animals per group scored positive if 7 or more survive)
Ac-PSDKPVA-NH2 [Peptide 29, Ac PRO SER ASP LYS PRO VAL ALA NH2]	–	–	–	–	+ (10 animals per group scored positive if 7 or more survive)
